# Measured values from ChEMBL document CHEMBL3797052 (Eur J Med Chem, 2016).
# How the values were obtained:
# [1] = Antiproliferative activity against human COLO205 cells assessed as growth inhibition after 48 hrs by sulforhodamine B assay; assay type: functional; settings: COLO 205, 48 h; for CC50: read-out: LC50 (the source's name)
# [2] = Antiproliferative activity against human HCC2998 cells assessed as growth inhibition after 48 hrs by sulforhodamine B assay; assay type: functional; settings: HCC 2998, 48 h; for CC50: read-out: LC50 (the source's name)
# [3] = Antiproliferative activity against human HL-60(TB) cells assessed as growth inhibition after 48 hrs by sulforhodamine B assay; assay type: functional; settings: HL-60, 48 h; for CC50: read-out: LC50 (the source's name)
# [4] = Antiproliferative activity against human RXF393 cells assessed as cell growth at 10^-4 M after 48 hrs by sulforhodamine B assay; assay type: functional; settings: RXF 393, 48 h, read-out: Activity
# [5] = Antiproliferative activity against human OVCAR3 cells assessed as cell growth at 10^-8 M after 48 hrs by sulforhodamine B assay; assay type: functional; settings: OVCAR-3, 48 h, read-out: Activity
# T47D = assay: Antiproliferative activity against human T47D cells assessed as growth inhibition after 48 hrs by sulforhodamine B assay; assay type: functional; settings: for CC50: read-out: LC50 (the source's name)
# [6] = Antiproliferative activity against human DU145 cells assessed as cell growth at 10^-8 M after 48 hrs by sulforhodamine B assay; assay type: functional; settings: DU-145, 48 h, read-out: Activity
# NCI-H322M = assay: Antiproliferative activity against human NCI-H322M cells assessed as growth inhibition after 48 hrs by sulforhodamine B assay; assay type: functional
# [7] = Antiproliferative activity against human Hs 578T cells assessed as cell growth at 10^-8 M after 48 hrs by sulforhodamine B assay; assay type: functional; settings: read-out: Activity
# Malme-3M = assay: Antiproliferative activity against human MALME-3M cells assessed as cell growth at 10^-8 M after 48 hrs by sulforhodamine B assay; assay type: functional; settings: read-out: Activity
# [8] = Antiproliferative activity against human LOXIMVI cells assessed as cell growth at 10^-8 M after 48 hrs by sulforhodamine B assay; assay type: functional; settings: LOX IMVI, read-out: Activity
# MDA-MB-231 [9] = assay: Antiproliferative activity against human MDA-MB-231 cells assessed as cell growth at 10^-8 M after 48 hrs by sulforhodamine B assay; assay type: functional; settings: MDA-MB-231, 48 h, read-out: Activity
# HT-29 = assay: Antiproliferative activity against human HT-29 cells assessed as cell growth at 10^-8 M after 48 hrs by sulforhodamine B assay; assay type: functional; settings: HT-29, 48 h, read-out: Activity
# [10] = Antiproliferative activity against human HL-60(TB) cells assessed as cell growth at 10^-6 M after 48 hrs by sulforhodamine B assay; assay type: functional; settings: HL-60, 48 h, read-out: Activity
# SR = assay: Antiproliferative activity against human SR cells assessed as growth inhibition after 48 hrs by sulforhodamine B assay; assay type: functional
# MDA-MB-231 [11] = assay: Antiproliferative activity against human MDA-MB-231 cells assessed as growth inhibition after 48 hrs by sulforhodamine B assay; assay type: functional; settings: MDA-MB-231, 48 h; for CC50: read-out: LC50 (the source's name)
# [12] = Antiproliferative activity against human TK10 cells assessed as cell growth at 10^-8 M after 48 hrs by sulforhodamine B assay; assay type: functional; settings: TK-10, 48 h, read-out: Activity
# MDA-MB-468 = assay: Antiproliferative activity against human MDA-MB-468 cells assessed as cell growth at 10^-4 M after 48 hrs by sulforhodamine B assay; assay type: functional; settings: MDA-MB-468, 48 h, read-out: Activity
# NCI-H522 = assay: Antiproliferative activity against human NCI-H522 cells assessed as cell growth at 10^-6 M after 48 hrs by sulforhodamine B assay; assay type: functional; settings: NCI-H522, 48 h, read-out: Activity
# CYP1A2 = target: T1, CYP1A2 (Homo sapiens, UniProt P05177); assay: Inhibition of recombinant human CYP1A2 assessed as remaining enzyme activity using CYP1A2 blue as substrate at 10 uM after 5 mins in presence of NADP by fluorescence plate reader analysis; assay type: ADME; settings: recombinant human CYP1A2, probe CYP1A2 blue, read-out: Activity
# T1 sequence (P05177 whole entry): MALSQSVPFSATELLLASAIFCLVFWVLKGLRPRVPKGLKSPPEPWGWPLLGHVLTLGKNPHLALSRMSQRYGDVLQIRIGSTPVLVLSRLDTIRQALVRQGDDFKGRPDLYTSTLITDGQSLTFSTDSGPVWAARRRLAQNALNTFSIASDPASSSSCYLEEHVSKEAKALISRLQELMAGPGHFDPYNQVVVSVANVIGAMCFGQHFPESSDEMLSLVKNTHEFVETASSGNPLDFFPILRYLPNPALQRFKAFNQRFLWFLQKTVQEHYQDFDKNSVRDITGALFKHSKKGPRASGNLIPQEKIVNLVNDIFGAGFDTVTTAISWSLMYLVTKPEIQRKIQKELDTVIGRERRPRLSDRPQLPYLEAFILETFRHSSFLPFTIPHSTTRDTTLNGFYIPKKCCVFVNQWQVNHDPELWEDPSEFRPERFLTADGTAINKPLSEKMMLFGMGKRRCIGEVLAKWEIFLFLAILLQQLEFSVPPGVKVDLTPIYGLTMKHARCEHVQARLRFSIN
# NCI-H23 [13] = assay: Antiproliferative activity against human NCI-H23 cells assessed as cell growth at 10^-7 M after 48 hrs by sulforhodamine B assay; assay type: functional; settings: NCI-H23, 48 h, read-out: Activity
# A549 = assay: Antiproliferative activity against human A549/ATCC cells assessed as cell growth at 10^-4 M after 48 hrs by sulforhodamine B assay; assay type: functional; settings: A549, 48 h, read-out: Activity
# MCF7 = assay: Antiproliferative activity against human MCF7 cells assessed as growth inhibition after 48 hrs by sulforhodamine B assay; assay type: functional; settings: MCF7, 48 h; for CC50: read-out: LC50 (the source's name)
# MDA-MB-435 = assay: Antiproliferative activity against human MDA-MB-435 cells assessed as cell growth at 10^-8 M after 48 hrs by sulforhodamine B assay; assay type: functional; settings: MDA-MB-435, 48 h, read-out: Activity
# A498 = assay: Antiproliferative activity against human A498 cells assessed as cell growth at 10^-4 M after 48 hrs by sulforhodamine B assay; assay type: functional; settings: A498, 48 h, read-out: Activity
# NCI-H23 [14] = assay: Antiproliferative activity against human NCI-H23 cells assessed as cell growth at 10^-6 M after 48 hrs by sulforhodamine B assay; assay type: functional; settings: NCI-H23, 48 h, read-out: Activity
# KM12 = assay: Antiproliferative activity against human KM12 cells assessed as cell growth at 10^-6 M after 48 hrs by sulforhodamine B assay; assay type: functional; settings: KM12, 48 h, read-out: Activity
# [15] = Antiproliferative activity against human HL-60(TB) cells assessed as cell growth at 10^-4 M after 48 hrs by sulforhodamine B assay; assay type: functional; settings: HL-60, 48 h, read-out: Activity
# [16] = Antiproliferative activity against human MOLT4 cells assessed as cell growth at 10^-6 M after 48 hrs by sulforhodamine B assay; assay type: functional; settings: MOLT-4, 48 h, read-out: Activity
compound,measurement,setting,value
CNC(=O)c1cc(Oc2ccc3nc(NC(=O)Nc4ccc(Cl)c(Cl)c4)sc3c2)ccn1,GI50,[1],4.25 µM
same,TGI,[1],> 100 µM
same,CC50,[1],> 100 µM
same,GI50,[2],5.04 µM
same,TGI,[2],> 100 µM
same,CC50,[2],> 100 µM
same,GI50,[3],> 100 µM
same,TGI,[3],> 100 µM
same,CC50,[3],> 100 µM
same,growth at 100 µM,[4],-85%
same,growth at 0.01 µM,[5],101%
same,GI50,T47D,2.65 µM
same,TGI,T47D,6.36 µM
same,CC50,T47D,> 100 µM
same,growth at 0.01 µM,[6],102%
same,GI50,NCI-H322M,2.45 µM
same,LC50 (50% lethal concentration),NCI-H322M,> 100 µM
same,growth at 0.01 µM,[7],100%
same,growth at 0.01 µM,Malme-3M,97%
same,growth at 0.01 µM,[8],95%
same,growth at 0.01 µM,MDA-MB-231 [9],89%
same,growth at 0.01 µM,HT-29,107%
same,growth at 1 µM,[10],105%
same,GI50,SR,6.47 µM
same,LC50,SR,> 100 µM
same,TGI,SR,> 100 µM
same,GI50,MDA-MB-231 [11],2.15 µM
same,TGI,MDA-MB-231 [11],6.43 µM
same,CC50,MDA-MB-231 [11],> 100 µM
same,growth at 0.01 µM,[12],107%
same,growth at 100 µM,MDA-MB-468,-44%
same,growth at 1 µM,NCI-H522,97%
same,"activity at 5 min, 10 µM",CYP1A2,104%
same,growth at 0.1 µM,NCI-H23 [13],92%
same,growth at 100 µM,A549,-41%
same,GI50,MCF7,2.65 µM
same,TGI,MCF7,> 100 µM
same,CC50,MCF7,> 100 µM
same,growth at 0.01 µM,MDA-MB-435,89%
same,growth at 100 µM,A498,-42%
same,growth at 1 µM,NCI-H23 [14],88%
same,growth at 1 µM,KM12,91%
same,growth at 100 µM,[15],89%
same,growth at 1 µM,[16],99%
CNC(=O)c1cc(Oc2ccc3nc(NC(=O)Nc4ccc(Cl)c(C(F)(F)F)c4)sc3c2)ccn1,CC50,[1],> 100 µM
same,TGI,[2],> 100 µM
same,CC50,[2],> 100 µM
same,GI50,[3],> 100 µM
same,TGI,[3],> 100 µM
same,CC50,[3],> 100 µM
same,growth at 100 µM,[4],-78%
same,growth at 0.01 µM,[5],109%
same,GI50,T47D,0.723 µM
same,TGI,T47D,3.65 µM
same,CC50,T47D,> 100 µM
same,growth at 0.01 µM,[6],109%
same,GI50,NCI-H322M,2.62 µM
same,LC50 (50% lethal concentration),NCI-H322M,> 100 µM
same,growth at 0.01 µM,[7],92%
same,growth at 0.01 µM,Malme-3M,104%
same,growth at 0.01 µM,[8],99%
same,growth at 0.01 µM,MDA-MB-231 [9],115%
same,growth at 0.01 µM,HT-29,99%
same,growth at 1 µM,[10],96%
same,GI50,SR,0.412 µM
same,LC50,SR,> 100 µM
same,TGI,SR,9.1 µM
same,GI50,MDA-MB-231 [11],1.43 µM
same,TGI,MDA-MB-231 [11],4.29 µM
same,CC50,MDA-MB-231 [11],59.2 µM
same,growth at 0.01 µM,[12],104%
same,growth at 100 µM,MDA-MB-468,-43%
same,growth at 1 µM,NCI-H522,80%
same,"activity at 5 min, 10 µM",CYP1A2,106%
same,growth at 0.1 µM,NCI-H23 [13],97%
same,growth at 100 µM,A549,9%
same,GI50,MCF7,1.72 µM
same,CC50,MCF7,> 100 µM
same,growth at 0.01 µM,MDA-MB-435,91%
same,growth at 100 µM,A498,-40%
same,growth at 1 µM,NCI-H23 [14],88%
same,growth at 1 µM,KM12,85%
same,growth at 100 µM,[15],59%
same,growth at 1 µM,[16],95%
CNC(=O)c1cc(Oc2ccc3nc(NC(=O)Nc4cc(C(F)(F)F)cc(C(F)(F)F)c4)sc3c2)ccn1,GI50,[1],0.822 µM
same,TGI,[1],2.32 µM
same,CC50,[1],5.82 µM
same,GI50,[2],1.33 µM
same,TGI,[2],3.23 µM
same,CC50,[2],7.85 µM
same,GI50,[3],1.6 µM
same,TGI,[3],4.17 µM
same,CC50,[3],20.4 µM
same,growth at 100 µM,[4],-70%
same,growth at 0.01 µM,[5],101%
same,GI50,T47D,0.479 µM
same,TGI,T47D,2.3 µM
same,CC50,T47D,8.47 µM
same,growth at 0.01 µM,[6],101%
same,GI50,NCI-H322M,1.49 µM
same,TGI,NCI-H322M,3.65 µM
same,growth at 0.01 µM,[7],96%
same,growth at 0.01 µM,Malme-3M,96%
same,growth at 0.01 µM,[8],93%
same,growth at 0.01 µM,MDA-MB-231 [9],103%
same,growth at 0.01 µM,HT-29,97%
same,growth at 1 µM,[10],75%
same,GI50,SR,0.514 µM
same,LC50,SR,31.6 µM
same,TGI,SR,2.6 µM
same,GI50,MDA-MB-231 [11],0.829 µM
same,TGI,MDA-MB-231 [11],2.62 µM
same,CC50,MDA-MB-231 [11],7.5 µM
same,growth at 0.01 µM,[12],95%
same,growth at 100 µM,MDA-MB-468,-75%
same,growth at 1 µM,NCI-H522,32%
same,"activity at 5 min, 10 µM",CYP1A2,110%
same,growth at 0.1 µM,NCI-H23 [13],95%
same,growth at 100 µM,A549,-97%
same,GI50,MCF7,1.05 µM
same,TGI,MCF7,2.93 µM
same,CC50,MCF7,8.23 µM
same,growth at 0.01 µM,MDA-MB-435,92%
same,growth at 100 µM,A498,-93%
same,growth at 1 µM,NCI-H23 [14],36%
same,growth at 1 µM,KM12,25%
same,growth at 100 µM,[15],-59%
